Test [1] deals with ethanol-induced gastric mucosal erosive damage in the rat. The experiment in a line: Inhibition of ethanol-induced gastric mucosal erosive damage (antiulcer test). The note with it: for inhibition in vivo at 25 µmol/kg: read-out: % Inhibition of gastric erosions. Type of test: in vivo.
From the text: The object of the experiment was to test the ability of drugs to inhibit a state of gastric submucosal haemorrhage induced by absolute ethanol in the conscious rat.
The procedure used was as follows. Male rats, preferably Wistars, were fasted overnight in wire mesh bottom cages, so as to prevent copraphagy. Water was allowed ad. libitum. Six or seven rats per cage were regarded as suitable, and the weight range of the rats used was between 175 and 300g. Water was removed one hour prior to treatment. The rats were then randomly allocated to their respective treatment groups, so that there were no less than five rats per group. One control group was always included.
Each rat was pre-dosed with lml/100g of control or test drug, dissolved or suspended in 0.5% methyl cellulose or 1% Tween 80 in water, via an oral dosing needle. Ninety minutes later each rat was dosed with lml/rat p.o. of absolute ethanol. Ten minutes after the absolute ethanol, the rats were killed by an intracardiac injection of Expiral^*. The stomachs were excised, cut open along the greater curvature to expose the mucosal surface, washed in tap water to remove debris, then stretched on a cork board for examination.
A subjective macroscopic examination of the stomach was carried out with a damage score being allocated to each stomach. Two observers were usually used, one of whom scored the results in a 'blinded' manner. The results were then analysed by the Mann-Whitney U-test, with p<0.05 being regarded as statistically significant.
^*(sodium pentobarbitone solution 200mg/ml)
The subject of test [2] is Cold restraint stress - induced gastric erosions. The experiment in a line: Cold restraint stress-induced gastric erosions (antiulcer test). Type of test: in vivo, Male Wistar rats. The note with it: Oral Dose 25 µmol/kg in 0.5% methylcellulose, 30 min before 2.5 hours at 4°C in restraint; mucosal damage scored visually; * p<0.05, ** p<0.01 (Wilcoxon). The method, then: Male Wistar rats, 175-225g bodyweight are used. Forty eight hours prior to testing, animals are placed in mesh-bottomed cages with 10-12 animals per cage. Twenty-four hours prior to testing, animals are placed in the dark at a temperature of l7 °C. Sixteen hours prior to testing, food is removed from the cages. Drugs are made up in 0.5% methylcellulose, and adminstered at a volume of 1.0ml/100g bodyweight. Eight rats per group are used, with usually 1 control group and 2 test groups. Animals are placed in Bollman type restraining cages and arranged in a vertical position. Thirty minutes after dosing the animals are placed in an ambient temperature of 4 °C for 2.5 hours. At the end of this time the rats are sacrificed, the stomachs removed, cut open and pinned out on cork boards. Mucosal damage is assessed visually and scored on a subjective scale. Statistical differences between control and test groups are assessed using a Wilcoxon Ranking Test.

The test system of test [3] is Heidenhain pouch of the dog. Description: Gastro-intestinal motility: intraluminal pressure in the Heidenhain pouch. The note with it: dose of 0.5mg/kg i.v., conscious fasted dog, chronic Heidenhain pouch. The test is classed as in vivo. The method, then:
Pressure changes were recorded via a saline filled catheter inserted, with airtight closure, into the fistula of a chronic Heidenhain pouch of the previously fasted and lightly restrained conscious dog. The catheter was connected to a physiological pressure transducer and pressure changes recorded on a hot wire pen recorder. Compounds were administered when the motility was in a phase of relatively low activity and the dose range determined which induced an increase in the amplitude of rhythmical contractions for a period of at least 4-5 minutes.

[4] abbreviates: Oral Dose 25 µmol/kg, 90 min before 1 ml/rat p.o. absolute ethanol, stomach scored 10 min later, * p<0.05, ** p<0.01, *** p<0.001 (Mann-Whitney U-test).

Where a name gives a salt, the structure may show the parent alone. Read-outs that look alike come from different tables or passages of the source.

As to `COc1ccccc1[C@@H]1CCN(Cc2ccccc2)C[C@H]1COc1ccc2c(c1)OCO2` (racemic) [Example 2, (±)trans 1-Benzyl-4-(2'-methoxyphenyl)-3-(3',4'-methylenedioxyphenoxymethyl)piperidine hydrochloride], in test [1] (setting [4]), the inhibition in vivo at 25 µmol/kg stood at 47.7%. Besides, the “% Inhibition of gastric erosions” value in test [2] is 58* %.
For the compound `Fc1ccc(C2=CCN(Cc3ccccc3)CC2COc2ccc3c(c2)OCO3)cc1` (racemic) [Example 11, (±)-1-Benzyl-4-(4'-fluorophenyl)-3-(3,4-methylenedioxy-phenoxymethyl)-1,2,3,6-tetrahydropyridine hydrochloride], the inhibition in vivo at 25 µmol/kg in test [1] (setting [4]) is 26%.
Same read-out and setting: with `Cc1ccccc1[C@@H]1CCN(Cc2ccccc2)C[C@H]1COc1ccc2c(c1)OCO2` (racemic) [Example 17, (±)-trans-1-Benzyl-3-(3',4'-methylenedioxyphenoxy-methyl)-4-(2'-methylphenyl)piperidine hydrochloride] the figure was 31%.
Take `Cc1ccc(OC[C@@H]2CN(Cc3ccccc3)CC[C@H]2c2ccc(F)cc2)cc1` (racemic) [Example 18, (±)-trans-1-Benzyl-4-(4'-fluorophenyl)-3-(4'-methylphenoxymethyl)piperidine maleate]: in test [1] (Rattus norvegicus, po), the inhibition in vivo at 25 µmol/kg came out at 21%.
With `Cc1ccc(OC[C@@H]2CN(Cc3ccc(F)cc3)CC[C@H]2c2ccc(F)cc2)cc1` (racemic) [Example 19, (±)-trans-1-(4'-Fluorobenzyl)-4-(4'-fluorophenyl)-3-(4'-methylphenoxymethyl)piperidine maleate], the inhibition in vivo at 25 µmol/kg in test [1] (Rattus norvegicus, po) amounted to 69%.
Same read-out and setting: with `Fc1ccc(CN2CC[C@@H](c3ccc(F)cc3)[C@H](COc3ccccc3)C2)cc1` (racemic) [Example 20, (±)-trans-1-(4'-Fluorobenzyl)-4-(4'-fluorophenyl)-3-phenoxymethylpiperidine maleate] the figure was 70%; with `Fc1ccc(OC[C@@H]2CN(Cc3ccccc3)CC[C@H]2c2ccc(F)cc2)cc1` (racemic) [Example 21, (±)-trans-1-Benzyl-3-(4'-fluorophenoxymethyl)-4-(4'-fluorophenyl)piperidine maleate], 27%.
On the same count and under the same terms, next, `Fc1ccc(CN2CC[C@@H](c3ccc(F)cc3)[C@H](COc3ccc(F)cc3)C2)cc1` (racemic) [Example 22, (±)-trans-1-(4'-Fluorobenzyl)-3-(4'-fluorophenoxy-methyl)-4-(4'-fluorophenyl)piperidine maleate]: 53%.
As for `Fc1ccc([C@@H]2CCN(Cc3ccccc3)C[C@H]2COc2ccc3c(c2)OCO3)cc1` (single isomer, unassigned) [Example 1, (-)-trans-l-Benzyl-4-(4'-fluorophenyl)-3-(3',4'-methylenedioxyphenoxymethyl)piperidine hydrochloride], in test [1] (setting [4]), the inhibition in vivo at 25 µmol/kg is 66%. In test [2], the “% Inhibition of gastric erosions” value was 53** %. Also, the “increase in the amplitude of rhythmical contractions for a period of at least 4-5 minutes” value in test [3] is recorded as “active”.
Regarding `Fc1ccc(CN2CC[C@@H](c3ccc(F)cc3)[C@H](COc3ccc4c(c3)OCO4)C2)cc1` (single isomer, unassigned) [Example 9, (-) trans-l-(4'-fluorobenzyl)-4-(4'-fluorophenyl)-3-(3',4'-methylenedioxyphenoxymethyl)piperidine hydrochloride], the inhibition in vivo at 25 µmol/kg in test [1] (setting [4]) came to 71%.
`Fc1ccc([C@@H]2CCN(Cc3ccccc3F)C[C@H]2COc2ccc3c(c2)OCO3)cc1` (single isomer, unassigned) [Example 14, (-) trans-l-(2'-Fluorobenzyl)-4-(4'-fluorophenyl)-3-(3',4-methylenedioxyphenoxymethyl)piperidine hydrochloride]: the inhibition in vivo at 25 µmol/kg in test [1] (setting [4]) is 39%.
In the case of `c1ccc(CN2CC[C@@H](c3ccccc3)[C@H](COc3ccc4c(c3)OCO4)C2)cc1` (single isomer, unassigned) [Example 15, (-) trans-l-Benzyl-3-(3',4'-methylenedioxyphenoxy-methyl)-4-phenylpiperidine hydrochloride], in test [1] (setting [4]), the inhibition in vivo at 25 µmol/kg is 67%.
Same read-out and setting: with `Fc1ccc(CN2CC[C@@H](c3ccccc3)[C@H](COc3ccc4c(c3)OCO4)C2)cc1` (single isomer, unassigned) [Example 16, (-) trans-l-(4'-Fluorobenzyl)-3-(3',4'-methylenedioxy-phenoxymethyl)-4-phenylpiperidine hydrochloride] the figure was 83%; with `Fc1ccc(C2CCN(Cc3ccccc3)CC2COc2ccc3c(c2)OCO3)cc1` (single isomer, unassigned; (+)) [Example 5, (+)trans-l-Benzyl-4-(4'-fluorophenyl)-3-(3',4'-methylenedioxyphenoxymethyl)piperidine hydrochloride], 30%.
For the compound “(+) cis-l-(4'-Fluorobenzyl)-4-(4'-fluorophenyl)-3-(3', 4'-methylenedioxyphenoxymethyl)piperidine hydrochloride [Example 12]”, the “% Inhibition of gastric erosions” value in test [1] (setting [4]) was 84.9** %.
As to “(+)cis-1-Benzyl-4-(4'-fluorophenyl)3-(3',4'-methylene- dioxyphenoxymethyl)piperidine hydrochloride [Example 7]”, the “% Inhibition of gastric erosions” value in test [1] (setting [4]) is reported as 63.1** %.
Same read-out and setting: next, “(-) cis-l-(4'-Fluorobenzyl)-4-(4'-fluorophenyl)-3-(3', 4'-methylenedioxyphenoxymethyl)piperidine hydrochloride [Example 13]”: 46** %.
Same read-out and setting: with “(-)cis-l-Benzyl-4-(4'-fluorophenyl)-3-(3',4'-methylene- dioxyphenoxymethyl)piperidine hydrochloride [Example 8]” the figure was 46.8* %.

The values are drawn from patent EP0190496A2, “Piperidine derivatives having a gastro-intestinal activity” (BEECHAM GROUP PLC, priority 1984, dated 1986).
